Series [1] deals with AR 1.0 cells. In words: Drug accumulation assay: daunorubicin accumulation in AR 1.0 cells. It counts as cell-based. Conditions: Mus musculus, 100% = accumulation with verapamil 100 μM, 1 hr, 37° C. The procedure, abridged: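 Daunorubicin accumulation was measured in cells plated 48 h beforehand. These were AR 1.0 cells, an MDR-resistant derivative of mouse EMT6 mammary carcinoma, cultured at 37 °C in 5% CO2 in RPMI 1640 plus 10% foetal calf serum and 2 mM glutamine.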

Series [2] relates to AR 1.0 cells. In words: Potentiation index with doxorubicin titration. It counts as cell-based, mouse. Conditions: for Potentiation Index at RMA concentration 300 nM: Table C2, RMA 300 nM; for Potentiation Index at RMA concentration 500 nM: Table C2, RMA 500 nM; for Potentiation Index at RMA concentration 10 nM: Table C2, RMA 10 nM; for Potentiation Index at RMA concentration 30 nM: Table C2, RMA 30 nM; for Potentiation Index at RMA concentration 100 nM: Table C2, RMA 100 nM. The method, boiled down:
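Doxorubicin IC50 in AR 1.0 cells (MDR subline of EMT6 mouse mammary carcinoma) determined by sulphorhodamine B after 4-day culture across 0.263 nM-17.24 μM, with and without a fixed dose of test compound; their ratio gives the PI.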

Series [3] has as its system AR 1.0 cells. The series can be described thus: Potentiation of doxorubicin toxicity: proliferation assay (sulphorhodamine B). Format: cell-based, mouse. The text has this: (a) Selected compounds of formula (I) were examined for their ability to potentiate the toxicity of doxorubicin in AR 1.0 cells.
The mark [4] stands for this setting: Mus musculus, 96 h, compound alone, four day proliferation, read-out: Compound Toxicity (IC50).
Setting [5] is: with fixed doxorubicin 0.34 μm, four days, 5760 min, read-out: Toxicity with Cytotoxic Agent (IC50).

For the compound `COc1cc2c(cc1OC)CN(CCc1ccc(NC(=O)c3ccccc3NC(=O)c3cccc(C)c3)cc1)CC2` [compound 9503, 2-(3-Methyl-benzoylamino)-N-{4-[2-(6,7-dimethoxy-3,4-dihydro-1H-isoquinolin-2-yl)-ethyl]-phenyl}-benzamide], the results for the IC50 in the series with AR 1.0 cells [1], with AR 1.0 cells [3] (setting [4]) and in the series with AR 1.0 cells [3] (setting [5]) were 2 µM, 3.5 µM and 0.09 µM, respectively. Moreover, the “Potentiation Index at RMA concentration 300 nM” value in the series on AR 1.0 cells [2] is listed as 36. Moreover, the “Potentiation Index at RMA concentration 500 nM” value in the series on AR 1.0 cells [2] turned out to be 77.
With `COc1cc2c(cc1OC)CN(CCc1ccc(NC(=O)c3ccc([N+](=O)[O-])cc3NC(=O)c3cnc4ccccc4c3)cc1)CC2` [compound 9581, Quinoline-3-carboxylic acid (2-{4-[2-(6,7-dimethoxy-3,4-dihydro-1H-isoquinolin-2-yl)-ethyl]-phenylcarbamoyl}-5-nitro-phenyl)-amide], the IC50 – broadly, the concentration needed to halve the response being measured – amounted to 0.015 µM in the series on AR 1.0 cells [1] and 0.31 µM in the series on AR 1.0 cells [3] (setting [4]). Also, in the series with AR 1.0 cells [2], the “Potentiation Index at RMA concentration 10 nM” value stood at 90. In the series on AR 1.0 cells [2], the “Potentiation Index at RMA concentration 30 nM” value came out at 300.
In the case of `COc1cc2c(cc1OC)CN(CCNC(=O)c1ccccc1NC(=O)c1ccc(C(C)C)cc1)CC2` [compound 9304, 2-(4-Isopropyl-benzoylamino)-N-[2-(6,7-dimethoxy-3,4-dihydro-1H-isoquinolin02-yl)-ethyl]-benzamide], the results for the IC50 in the series with AR 1.0 cells [1], with AR 1.0 cells [3] (setting [4]) and in the series with AR 1.0 cells [3] (setting [5]) were 1.2 µM, 8 µM and 0.15 µM, respectively. Further, the “Potentiation Index at RMA concentration 500 nM” value with AR 1.0 cells [2] amounted to 30.
For `COc1cc2c(cc1OC)CN(CCc1ccc(NC(=O)c3ccc(NO)cc3NC(=O)c3cnc4ccccc4n3)cc1)CC2` [compound 9542, Quinoxaline-2-carboxylic acid (2-{4-[2-(6,7-dimethoxy-3,4-dihydro-1H-isoquinolin-2-yl)-ethyl]-phenylcarbamoyl}-5-hydroxyamino-phenyl)-amide], the IC50 stood at 0.13 µM in the series on AR 1.0 cells [1], 1.9 µM with AR 1.0 cells [3] (setting [4]) and 0.014 µM with AR 1.0 cells [3] (setting [5]). In the series with AR 1.0 cells [2], the “Potentiation Index at RMA concentration 100 nM” value stood at 128. The “Potentiation Index at RMA concentration 300 nM” value in the series with AR 1.0 cells [2] was determined as 160.
`COc1cc2c(cc1OC)CN(CCc1ccc(NC(=O)c3ccccc3NC(=O)c3cnc4ccccc4n3)cc1)CC2` [compound 9531, Quinoxaline-2-carboxylic. acid (2-{4-[2-(6,7-dimethoxy-3,4-dihydro-1H-isoquinolin-2-yl)-ethyl]-phenylcarbamoyl}-phenyl)-amide] returned a half-inhibitory concentration (IC50) in the series on AR 1.0 cells [1] of 0.035 µM. Also, in the series with AR 1.0 cells [2], the “Potentiation Index at RMA concentration 10 nM” value came to 30, the “Potentiation Index at RMA concentration 30 nM” value was 120, the “Potentiation Index at RMA concentration 100 nM” value came out at 150 and the “Potentiation Index at RMA concentration 300 nM” value was 160. The concentration for half-maximal inhibition (IC50) in the series with AR 1.0 cells [3] (setting [4]) turned out to be 1.1 µM. Besides, in the series with AR 1.0 cells [3] (setting [5]), the concentration for half-maximal inhibition (IC50) worked out at 0.005 µM.
Consider `COc1cc2c(cc1OC)CN(CCc1ccc(NC(=O)c3ccccc3NC(=O)c3ccc(Cl)cc3)cc1)CC2` [compound 9496, 2-(4-chloro-benzoylamino)-N-{4-[2-(6,7-dimethoxy-3,4-dihydro-1H-isoquinolin-2-yl)-ethyl]-phenyl}-benzamide], for which the IC50 with AR 1.0 cells [1] turned out to be 0.48 µM. Further, in the series on AR 1.0 cells [2], the “Potentiation Index at RMA concentration 30 nM” value was 1.6, the “Potentiation Index at RMA concentration 100 nM” value stood at 19, the “Potentiation Index at RMA concentration 300 nM” value was determined as 254 and the “Potentiation Index at RMA concentration 500 nM” value turned out to be 825. In the series on AR 1.0 cells [3] (setting [4]), the concentration for half-maximal inhibition (IC50) turned out to be 4 µM. Besides, the IC50 in the series with AR 1.0 cells [3] (setting [5]) amounted to 0.03 µM.
Regarding `CCCc1ccc(C(=O)Nc2ccccc2C(=O)NCCN2CCc3cc(OC)c(OC)cc3C2)cc1` [compound 9297, 2-(4-Propyl-benzoylamino)-N-[2-(6,7-dimethoxy-3,4-dihydro-1H-isoquinolin-2-yl)-ethyl]-benzamide], the IC50 came out at 0.4 µM with AR 1.0 cells [1], 18 µM in the series with AR 1.0 cells [3] (setting [4]) and 0.33 µM in the series on AR 1.0 cells [3] (setting [5]). Further, the “Potentiation Index at RMA concentration 300 nM” value in the series on AR 1.0 cells [2] is listed as 16.
Consider `COc1cc2c(cc1OC)CN(CCNC(=O)c1ccccc1NC(=O)c1ccc(Cc3ccccc3)cc1)CC2` [compound 9442, 2-(4-Benzyl-benzoylamino)-N-[2-(6,7-dimethoxy-3,4-dihydro-1H-isoquinolin-2-yl)-ethyl]-benzamide], for which the concentration for half-maximal inhibition (IC50) came out at 1 µM in the series on AR 1.0 cells [1], 7.2 µM in the series on AR 1.0 cells [3] (setting [4]) and 0.05 µM in the series with AR 1.0 cells [3] (setting [5]). The “Potentiation Index at RMA concentration 300 nM” value in the series with AR 1.0 cells [2] came out at 27. Further, in the series on AR 1.0 cells [2], the “Potentiation Index at RMA concentration 500 nM” value is listed as 67.
For the compound `COc1cc2c(cc1OC)CN(CCc1ccc(NC(=O)c3cc(F)ccc3NC(=O)c3cnc4ccccc4n3)cc1)CC2` [compound 9568, Quinoxaline-2-carboxylic acid. (2-{4-[2-(6,7-dimethoxy-3,4-dihydro-1H-isoquinolin-2-yl)-ethyl]-phenylcarbamoyl}-4-fluoro-phenyl)-amide], the IC50 with AR 1.0 cells [1] is 0.017 µM; with AR 1.0 cells [3] (setting [4]), 2.8 µM; in the series on AR 1.0 cells [3] (setting [5]), 0.0034 µM. Besides, the “Potentiation Index at RMA concentration 10 nM” value in the series on AR 1.0 cells [2] is listed as 23. Further, the “Potentiation Index at RMA concentration 30 nM” value in the series on AR 1.0 cells [2] came to 60. The “Potentiation Index at RMA concentration 100 nM” value with AR 1.0 cells [2] is given as 88.
For the compound `COc1cc2c(cc1OC)CN(CCc1ccc(NC(=O)c3ccccc3NC(=O)c3cccc4ccccc34)cc1)CC2` [compound 9470], the IC50 in the series on AR 1.0 cells [1] amounted to 1.3 µM; in the series with AR 1.0 cells [3] (setting [4]) it was 3.5 µM; with AR 1.0 cells [3] (setting [5]) it was 0.075 µM. The “Potentiation Index at RMA concentration 300 nM” value in the series with AR 1.0 cells [2] amounted to 26. Moreover, in the series with AR 1.0 cells [2], the “Potentiation Index at RMA concentration 500 nM” value came out at 90.
As for `COc1cc2c(cc1OC)CN(CCc1ccc(NC(=O)c3ccccc3NC(=O)c3ccccc3O)cc1)CC2` [compound 9535], the 50% inhibitory concentration (IC50) with AR 1.0 cells [1] was found to be 0.45 µM; with AR 1.0 cells [3] (setting [4]), 2.6 µM; in the series on AR 1.0 cells [3] (setting [5]), 0.015 µM. Also, the “Potentiation Index at RMA concentration 100 nM” value in the series on AR 1.0 cells [2] is given as 32. In the series with AR 1.0 cells [2], the “Potentiation Index at RMA concentration 300 nM” value was 128.
On to `COc1cc2c(cc1OC)CN(CCc1ccc(NC(=O)c3ccccc3NC(=O)c3ccccc3)cc1)CC2` [compound 9456, 2-Benzoylamino-N-{4-[2-(6,7-dimethoxy-3,4-dihydro-1H-isoquinolin-2-yl)-ethyl]-phenyl}-benzamide], for which the IC50 in the series on AR 1.0 cells [1] stood at 0.3 µM; with AR 1.0 cells [3] (setting [4]), 5 µM. The “Potentiation Index at RMA concentration 100 nM” value in the series with AR 1.0 cells [2] is listed as 112.
For the compound `COc1cc2c(cc1OC)CN(CCc1ccc(NC(=O)c3ccccc3NC(=O)c3ccccc3OC)cc1)CC2` [compound 9477, 2-(2-Methoxy-benzoylamino)-N-{4-[2-(617-dimethoxy-3,4-dihydro-1H-isoquinolin-2-yl)-ethyl]-phenyl}-benzamide], the concentration for half-maximal inhibition (IC50) in the series with AR 1.0 cells [1] amounted to 0.41 µM; in the series on AR 1.0 cells [3] (setting [4]) it was 4 µM. In the series on AR 1.0 cells [2], the “Potentiation Index at RMA concentration 300 nM” value was 29. For the same compound, the “Potentiation Index at RMA concentration 500 nM” value in the series with AR 1.0 cells [2] was 63.
Turning to `COc1cc2c(cc1OC)CN(CCNC(=O)c1ccccc1NC(=O)c1ccc(C(=O)c3ccccc3)cc1)CC2` [compound 9427, 2-(4-Benzoyl-benzoylamino)-N-[2-(6,7-dimethoxy-3,4-dihydro-1H-isoquinolin-2-yl)-ethyl]-benzamide], in the series with AR 1.0 cells [1], the IC50 came to 0.53 µM. In addition, in the series on AR 1.0 cells [2], the “Potentiation Index at RMA concentration 300 nM” value is listed as 14 and the “Potentiation Index at RMA concentration 500 nM” value is on record as 32. Also, the IC50 in the series with AR 1.0 cells [3] (setting [4]) worked out at 10 µM.
Take `COc1cc2c(cc1OC)CN(CCCNC(=O)c1ccccc1NC(=O)c1ccc(C3CCCCC3)cc1)CC2` [compound 9466]: the IC50 with AR 1.0 cells [1] came to 1.4 µM; in the series with AR 1.0 cells [3] (setting [4]), 6 µM; with AR 1.0 cells [3] (setting [5]) it was 0.05 µM. In addition, in the series with AR 1.0 cells [2], the “Potentiation Index at RMA concentration 300 nM” value is given as 30. Further, the “Potentiation Index at RMA concentration 500 nM” value in the series with AR 1.0 cells [2] is reported as 60.
For `COc1cc2c(cc1OC)CN(CCNC(=O)c1ccccc1NC(=O)c1ccc(OCc3ccccc3)cc1)CC2` [compound 9460, 2-(4-Benzyloxy-benzoylamino)-N-[2-(6,7-dimethoxy-3,4-dihydro-1H-isoquinolin-2-yl)-ethyl]-benzamide], in that order: 1 µM, 7.5 µM, 0.18 µM, 18 and 36.
Regarding `COc1cc2c(cc1OC)CN(CCc1ccc(NC(=O)c3ccccc3NC(=O)c3cnc4c(c3)CCCC4)cc1)CC2` [compound 9590, 5,6,7,8-Tetrahydroquinoline-3-carboxylic acid (2-{4-[2-(6,7-dimethoxy-3,4-dihydro-1H-isoquinolin-2-yl)-ethyl]-phenylcarbamoyl}-phenyl)-amide], the IC50 was found to be 0.097 µM in the series on AR 1.0 cells [1] and 9.5 µM in the series with AR 1.0 cells [3] (setting [4]). Besides, the “Potentiation Index at RMA concentration 10 nM” value with AR 1.0 cells [2] was found to be 2. For the same compound, the “Potentiation Index at RMA concentration 30 nM” value in the series with AR 1.0 cells [2] is recorded as 14.
`COc1cc2c(cc1OC)CN(CCc1ccc(NC(=O)c3ccc(C)cc3NC(=O)c3cnc4ccccc4c3)cc1)CC2` [compound 9588, Quinoline-3-carboxylic acid (2-{4-[2-(6,7-dimethoxy-3,4-dihydro-1H-isoquinolin-2-yl)-ethyl]-phenylcarbamoyl}-5-methyl-phenyl)-amide]: in the series on AR 1.0 cells [1], the concentration for half-maximal inhibition (IC50) was determined as 0.094 µM. In the series on AR 1.0 cells [2], the “Potentiation Index at RMA concentration 10 nM” value is given as 6 and the “Potentiation Index at RMA concentration 30 nM” value came out at 68. The IC50 with AR 1.0 cells [3] (setting [4]) is 6.7 µM.
On to `COc1cc2c(cc1OC)CN(CCNC(=O)c1ccc(F)cc1NC(=O)c1ccc(C(C)C)cc1)CC2` [compound 9349, 2-(4-Isopropyl-benzoylamino)-N-[2-(6,7-dimethoxy-3,4-dihydro-1H-isoquinolin-2-yl)-ethyl]-4-fluoro-benzamide], for which the IC50 is 0.3 µM in the series with AR 1.0 cells [1], 5.5 µM with AR 1.0 cells [3] (setting [4]) and 0.14 µM in the series on AR 1.0 cells [3] (setting [5]). The “Potentiation Index at RMA concentration 500 nM” value in the series with AR 1.0 cells [2] worked out at 22.

The values above are taken from US6218393A, “Anthranilic acid derivatives as multi drug resistance modulators” (priority 1997, dated 2001).
